Experimental data reported in patent US20050014816A1, “Thiophene amino acid derivatives, process for preparing them and pharmaceutical compositions containing them” (Pfizer Inc, priority 2003, published 2005).

How the values were obtained:
MMP-12 = MMP-12 (Homo sapiens, UniProt P39900); assay: in vitro inhibitory activity on MMP-12 (proteolysis of FP-1 peptide substrate); type: biochemical; conditions: FP-1 substrate 10 μM, 20 minutes at room temperature
Procedure: in vitro Evaluation of the Inhibitory Activity of the Compounds of the Invention on MMP-12:
The inhibitory activity of the compounds of formula (I) on metalloprotease-12 is evaluated by testing the capacity of the compounds of the invention to inhibit the proteolysis of a peptide that is an MMP-12 substrate.
The substrate peptide used (fluorigenic peptide-1: FP-1) in the test has the following sequence: Mca-Pro-Leu-Gly-Leu-Dap(Dnp)-Ala-Arg-NH2.
The inhibitory activity of a compound of formula (I) is expressed as the IC50 value, which represents the concentration of inhibitor for which a 50% inhibition of the metalloprotease is observed.
The reaction starts with the sequential addition of 41 μl of FP-1 substrate (final concentration of 10 μM) to a buffer solution of 50 mM of Tris-HCl and 10 mM of CaCl2, and containing 5 mM of hydroxamic acid and 5 μl of the enzyme diluted in a 0.005% Brij-35 buffer solution. The microplates are incubated for 20 minutes at room temperature. The compounds of the invention are tested at concentrations ranging from 0.3 to 30 μM. The measurement of the amount of proteolysis of the peptide substrate is monitored by means of a measurement of absorbance at 405 nm using a microplate spectrophotometer, at room temperature. The IC50 values are calculated from curves in which the percentage of the catalytic activity relative to the control is represented on the […] and the inhibitor concentration is represented on the y-axis.

MMP-13 = MMP-13 (Homo sapiens, UniProt P45452); assay: MMP-12 inhibition test adapted to MMP-13; type: biochemical; conditions: test for MMP-12 adapted to MMP-13
Procedure: The reaction starts with the sequential addition of 41 μl of FP-1 substrate (final concentration of 10 μM) to a buffer solution of 50 mM of Tris-HCl and 10 mM of CaCl2, and containing 5 mM of hydroxamic acid and 5 μl of the enzyme diluted in a 0.005% Brij-35 buffer solution. The microplates are incubated for 20 minutes at room temperature. The compounds of the invention are tested at concentrations ranging from 0.3 to 30 μM. The measurement of the amount of proteolysis of the peptide substrate is monitored by means of a measurement of absorbance at 405 nm using a microplate spectrophotometer, at room temperature. The IC50 values are calculated from curves in which the percentage of the catalytic activity relative to the control is represented on the x-axis and the inhibitor concentration is represented on the y-axis.
The test described above for the inhibition of MMP-12 is adapted and used to determine the capacity of the compounds of formula (I) to inhibit the metalloproteases MMP-1, MMP-2, MMP-3, MMP-7, MMP-9, MMP-13 and MMP-14.

MMP-12, sequence (P39900 106-470): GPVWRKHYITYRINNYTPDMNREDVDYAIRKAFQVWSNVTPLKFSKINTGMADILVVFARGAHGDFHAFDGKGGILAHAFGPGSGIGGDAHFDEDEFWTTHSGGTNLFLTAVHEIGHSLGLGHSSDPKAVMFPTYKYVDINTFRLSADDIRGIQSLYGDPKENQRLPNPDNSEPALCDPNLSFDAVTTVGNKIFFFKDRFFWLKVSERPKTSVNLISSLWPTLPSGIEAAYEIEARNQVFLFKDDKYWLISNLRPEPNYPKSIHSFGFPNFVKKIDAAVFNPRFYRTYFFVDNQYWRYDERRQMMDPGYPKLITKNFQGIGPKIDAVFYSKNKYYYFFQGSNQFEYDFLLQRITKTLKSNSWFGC

Row | SMILES | IC50 (MMP-12) [µM] | IC50 (MMP-13) [µM]
1 | O=C(O)CC(NC(=O)c1cc(-c2ccc(OC(F)(F)F)cc2)cs1)c1ccccc1 (racemic) [Example 6, {1[(4-Trifluoromethoxyphenyl)thien-2-yl]carboxamido}(phenyl)-propanoic acid] | 0.42 | 3.6
2 | O=C(N[C@H](C(=O)O)c1ccccc1)c1cc(-c2ccc(OC(F)(F)F)cc2)cs1 [Example 2] | 0.38 | 4.5
3 | O=C(N[C@@H](C(=O)O)c1ccccc1)c1cc(-c2ccc(OC(F)(F)F)cc2)cs1 [Example 4, (2R)-{[4-(4-Trifluoromethoxyphenyl)thien-2-yl]carboxamido}-(phenyl)acetic acid] | 0.47 | 5.6
4 | O=C(O)C[C@H](Cc1ccccc1)NC(=O)c1cc(-c2ccc(OC(F)(F)F)cc2)cs1 [Example 12, (3S)-3-{[4-(4-Trifluoromethoxyphenyl)thien-2-yl]carboxamido)-4-phenylbutanoic acid] | 0.53 | 8.3
5 | O=C(N[C@H](C(=O)O)c1ccccc1)c1cc(-c2ccc(C3CCCCC3)cc2)cs1 [Example 16, (2S)-{[4-(4-cyclohexylphenyl)thien-2-yl]carboxamido}(phenyl)acetic acid] | 0.54 | 6.5

Stronger by IC50 (MMP-12), values ahead:

Row | IC50 (MMP-12) [µM] | IC50 (MMP-13) [µM] | SMILES
6 | 0.18 | 2.2 | O=C(N[C@H](Cc1ccccc1)C(=O)O)c1cc(-c2ccc(OC(F)(F)F)cc2)cs1 [Example 8, (2R)-{[4-(4-Trifluoromethoxyphenyl)thien-2-yl]carboxamido}(phenyl)-propanoic acid]
7 | 0.077 | 0.96 | NC(=O)C[C@@H](NC(=O)c1cc(-c2ccc(OC(F)(F)F)cc2)cs1)c1ccccc1 [Example 9]
8 | 0.04 | 0.12 | CC(=O)c1ccc(-c2ccc(-c3csc(C(=O)N[C@H](C(=O)O)c4ccccc4)c3)cc2)cc1 [Example 18, (2S)4-[({4-[4-(4-Acetylphenyl)phenyl]thien-2-yl}carbonyl)amino]-(phenyl)acetic acid]
9 | 0.028 | 0.069 | CC(=O)c1ccc(-c2ccc(-c3csc(C(=O)N[C@H](CC(=O)O)c4ccccc4)c3)cc2)cc1 [Example 20]
